How the values were obtained:
Type in all cases: functional
Podosphaera xanthii [1] = assay: Fungicidal activity against Podosphaera xanthii (powdery mildew) spores inoculated on leaves of compound pre-treated 1.5 leaf-stage cucumber plants assessed as powdery mildew disease control level at 250 ppm measured after 7 days post fungal inoculation
Puccinia recondita [2] = assay: Fungicidal activity against Puccinia recondita spores inoculated on leaves of compound pre-treated 1.5 leaf-stage wheat plants assessed as wheat brown rust disease control level at 25 ppm measured after 8 days post fungal inoculation
Botrytis cinerea [3] = assay: Fungicidal activity against Botryotinia fuckeliana spores inoculated on leaves of compound pre-treated seed-leaf stage kidney beans assessed as gray mold disease control level at 62.5 ppm measured after 4 days post fungal inoculation
Pyricularia grisea [4] = assay: Fungicidal activity against Magnaporthe grisea spores inoculated on leaves of compound pre-treated 2 or 3 leaf-stage rice plants assessed as rice blast disease control level at 250 ppm measured after 7 days post fungal inoculation
Podosphaera xanthii [5] = assay: Fungicidal activity against Podosphaera xanthii (powdery mildew) spores inoculated on leaves of compound pre-treated 1.5 leaf-stage cucumber plants assessed as powdery mildew disease control level at 25 ppm measured after 7 days post fungal inoculation
Pyricularia grisea [6] = assay: Fungicidal activity against Magnaporthe grisea spores inoculated on leaves of compound pre-treated 2 or 3 leaf-stage rice plants assessed as rice blast disease control level at 50 ppm measured after 7 days post fungal inoculation
Botrytis cinerea [7] = assay: Fungicidal activity against Botryotinia fuckeliana spores inoculated on leaves of compound pre-treated seed-leaf stage kidney beans assessed as gray mold disease control level at 500 ppm measured after 4 days post fungal inoculation
Puccinia recondita [8] = assay: Fungicidal activity against Puccinia recondita spores inoculated on leaves of compound pre-treated 1.5 leaf-stage wheat plants assessed as wheat brown rust disease control level at 250 ppm measured after 8 days post fungal inoculation

| SMILES | Activity (Podosphaera xanthii [1]) | Activity (Puccinia recondita [2]) | Activity (Botrytis cinerea [3]) | Activity (Pyricularia grisea [4]) | Activity (Podosphaera xanthii [5]) | Activity (Pyricularia grisea [6]) | Activity (Botrytis cinerea [7]) | Activity (Puccinia recondita [8]) |
| --- | --- | --- | --- | --- | --- | --- | --- | --- |
| CC1=C(C(=O)Nc2ccsc2C(C)CC(C)C)SCCO1 (configuration not stated) | >=95% | >=95% | >=95% | >=95% | – | – | – | – |
| CC1=C(C(=O)Nc2ccsc2C(C)CC(C)C)CCCO1 (configuration not stated) | – | >=95% | >=95% | – | >=50% | >=95% | – | – |
| CC(C)CC(C)c1sccc1NC(=O)c1ccccc1Cl (configuration not stated) | – | >=95% | – | <95% | >=50% | – | >=95% | – |
| CC(C)CC(C)c1sccc1NC(=O)c1nccnc1Cl (configuration not stated) | <95% | >=95% | >=95% | >=95% | – | – | – | – |
| Cc1occc1C(=O)Nc1ccsc1C(C)CC(C)C (configuration not stated) | – | >=95% | >=95% | – | >=95% | >=95% | – | – |
| CC(C)CC(C)c1sccc1NC(=O)c1cccnc1Cl (configuration not stated) | – | – | >=50% | – | >=95% | – | – | – |
| Cc1nc(C(F)F)c(C(=O)Nc2ccsc2C(C)CC(C)C)s1 (configuration not stated) | – | >=95% | >=95% | – | >=95% | >=95% | – | – |
| Cc1nc(C(F)(F)F)c(C(=O)Nc2ccsc2C(C)CC(C)C)s1 (configuration not stated) | – | >=95% | >=95% | – | >=95% | – | – | – |
| Cc1nn(C)cc1C(=O)Nc1ccsc1C(C)CC(C)C (configuration not stated) | >=95% | >=95% | >=95% | – | – | >=50% | – | – |
| CC(C)CC(C)c1sccc1NC(=O)c1cn(C)nc1Cl (configuration not stated) | – | >=95% | >=95% | – | >=50% | >=50% | – | – |
| CC(C)CC(C)c1sccc1NC(=O)c1cn(C)nc1C(F)F (configuration not stated) | – | >=95% | >=95% | – | >=95% | >=95% | – | – |
| CC(C)CC(C)c1ccccc1NC(=O)c1cn(C)nc1C(F)(F)F (configuration not stated) | – | >=95% | >=95% | – | >=95% | >=95% | – | – |
| Cc1ccsc1C(=O)Nc1ccsc1C(C)CC(C)C (configuration not stated) | – | >=95% | >=95% | – | >=95% | >=95% | – | – |
| CCC(C)CC(C)c1sccc1NC(=O)c1cn(C)nc1C(F)(F)F (configuration not stated) | – | >=95% | >=50% | – | >=95% | >=95% | – | – |
| CC(CC(C)(C)C)c1sccc1NC(=O)c1cn(C)nc1C(F)(F)F (configuration not stated) | – | >=95% | – | <95% | >=95% | – | <95% | – |
| Cc1nc(C)c(C(=O)Nc2ccsc2C(C)CC(C)C)s1 (configuration not stated) | – | >=95% | >=95% | – | >=50% | >=95% | – | – |
| CC(C)CCC(C)c1sccc1NC(=O)c1cn(C)nc1C(F)(F)F (configuration not stated) | – | >=95% | – | >=95% | >=50% | – | >=95% | – |
| CCCCCC(C)c1sccc1NC(=O)c1cn(C)nc1C(F)(F)F (configuration not stated) | – | >=95% | >=50% | <95% | >=50% | – | – | – |
| CCC(C)C(C)c1sccc1NC(=O)c1cn(C)nc1C(F)(F)F (configuration not stated) | – | >=95% | >=95% | – | >=95% | >=50% | – | – |
| CCCCC(C)c1sccc1NC(=O)c1cn(C)nc1C(F)(F)F (configuration not stated) | – | >=95% | >=95% | >=95% | >=50% | – | – | – |
| CCC(CC)c1sccc1NC(=O)c1cn(C)nc1C(F)(F)F | <95% | >=50% | >=95% | <95% | – | – | – | – |
| CC(C)CCc1sccc1NC(=O)c1cn(C)nc1C(F)(F)F | – | >=95% | >=95% | – | >=50% | – | – | – |
| CCc1sccc1NC(=O)c1cn(C)nc1C(F)(F)F | – | – | – | – | – | – | >=95% | – |

| SMILES | Activity (Podosphaera xanthii [1]) | Activity (Puccinia recondita [2]) | Activity (Botrytis cinerea [3]) | Activity (Pyricularia grisea [4]) | Activity (Podosphaera xanthii [5]) | Activity (Pyricularia grisea [6]) | Activity (Botrytis cinerea [7]) | Activity (Puccinia recondita [8]) |
| --- | --- | --- | --- | --- | --- | --- | --- | --- |
| CCCC(C)c1sccc1NC(=O)c1cn(C)nc1C(F)(F)F (configuration not stated) | – | >=95% | >=95% | <95% | >=95% | – | – | – |
| Cn1cc(C(=O)Nc2ccsc2-c2ccccc2)c(C(F)(F)F)n1 | – | – | >=95% | <95% | >=50% | – | – | <95% |
| CCC(C)c1sccc1NC(=O)c1cn(C)nc1C(F)(F)F (configuration not stated) | – | >=95% | >=95% | <95% | >=50% | – | – | – |
| CC(C)c1sccc1NC(=O)c1cn(C)nc1C(F)(F)F | >=95% | >=95% | >=95% | <95% | – | – | – | – |
| CCC(C)c1ccccc1NC(=O)c1cn(C)nc1C(F)(F)F (configuration not stated) | – | >=95% | >=95% | <95% | >=50% | – | – | – |
| CC(C)c1ccccc1NC(=O)c1cn(C)nc1C(F)(F)F | >=95% | >=95% | >=95% | <95% | – | – | – | – |
| CC1CC(C)(C)c2cccc(NC(=O)c3cn(C)nc3C(F)(F)F)c21 (configuration not stated) | <95% | >=95% | >=95% | <95% | – | – | – | – |
| CC1CC(C)(C)c2cccc(NC(=O)c3cccnc3Cl)c21 (configuration not stated) | <95% | – | >=50% | <95% | – | – | – | <95% |
| CC1=C(C(=O)Nc2ccccc2-c2ccccc2)CCCO1 | – | >=50% | >=50% | <95% | >=95% | – | – | – |
| CC1=C(C(=O)Nc2ccccc2-c2ccccc2)SCCO1 | – | – | >=95% | <95% | >=50% | – | – | <95% |
| O=C(Nc1ccccc1-c1ccccc1)c1nccnc1Cl | >=95% | – | >=95% | <95% | – | – | – | <95% |
| O=C(Nc1ccccc1-c1ccccc1)c1cccnc1Cl | <95% | – | >=50% | <95% | – | – | – | – |
| Cc1nc(C)c(C(=O)Nc2ccccc2-c2ccccc2)s1 | >=95% | – | >=50% | <95% | – | – | – | – |
| Cc1nc(Cl)c(C(=O)Nc2ccccc2-c2ccccc2)s1 | <95% | – | – | <95% | – | – | <95% | <95% |
| Cc1ccsc1C(=O)Nc1ccccc1-c1ccccc1 | >=95% | – | >=95% | <95% | – | – | – | <95% |
| Cc1occc1C(=O)Nc1ccccc1-c1ccccc1 | <95% | – | >=95% | >=95% | – | – | – | >=95% |
| Cc1nc(C(F)F)c(C(=O)Nc2ccccc2-c2ccccc2)s1 | – | – | >=95% | >=95% | >=50% | – | – | <95% |
| Cc1nc(C(F)(F)F)c(C(=O)Nc2ccccc2-c2ccccc2)s1 | – | – | >=95% | >=95% | >=50% | – | – | – |
| Cn1cc(C(=O)Nc2ccccc2-c2ccccc2)c(Cl)n1 | <95% | – | – | <95% | – | – | <95% | <95% |
| Cc1nn(C)cc1C(=O)Nc1ccccc1-c1ccccc1 | <95% | – | >=50% | <95% | – | – | – | – |
| Cn1cc(C(=O)Nc2ccccc2-c2ccccc2)c(C(F)(F)F)n1 | – | – | >=95% | <95% | >=50% | – | – | >=95% |
| O=C(Nc1ccccc1-c1ccccc1)c1ccccc1Cl | <95% | – | >=95% | <95% | – | – | – | – |
| CC(C)CC(C)c1sccc1NC(=O)c1cn(C)nc1C(F)(F)F (configuration not stated) [PENTHIOPYRAD] | – | >=95% | >=95% | – | >=95% | >=95% | – | – |
